Measured values taken from PubChem BioAssay AID1919006 (Molecular Pharmacology Branch, DTP, NCI, 2023).

Test system: 885512-296-R-J2-PDC complex spheroid growth, % test/control
Assay: Anticancer human tumor 885512-296-R-J2-PDC patient-derived breast carcinoma cell line growth inhibition [AhR]
Details: for IC50: curve of first compound; for viability, T/C: stronger effect = lower value
Method in brief: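 Agents were dosed in half-log steps down from roughly clinical Cmax, or from 10 microM where Cmax was unknown, alone and with AhR antagonists. Read-out: percent test/control growth of tumor spheroids containing HUVEC and MSC stromal cells.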

[1] = second compound 0.1 µM, first compound 0.00949 µM
[2] = second compound 0.1 µM, first compound 0.03 µM
[3] = second compound 0.1 µM, first compound 0.0949 µM
[4] = second compound 0.1 µM, first compound 0.3 µM
[5] = second compound 0.316 µM, first compound 0.00949 µM
[6] = second compound 0.316 µM, first compound 0.03 µM
[7] = second compound 0.316 µM, first compound 0.0949 µM
[8] = second compound 0.316 µM, first compound 0.3 µM
[9] = second compound 1 µM, first compound 0.00949 µM
[10] = second compound 1 µM, first compound 0.03 µM
[11] = second compound 1 µM, first compound 0.0949 µM
[12] = second compound 1 µM, first compound 0.3 µM
[13] = second compound 3.16 µM, first compound 0.00949 µM
[14] = second compound 3.16 µM, first compound 0.03 µM
[15] = second compound 3.16 µM, first compound 0.0949 µM
[16] = second compound 3.16 µM, first compound 0.3 µM
[17] = second compound 10 µM, first compound 0.00949 µM
[18] = second compound 10 µM, first compound 0.03 µM
[19] = second compound 10 µM, first compound 0.0949 µM
[20] = second compound 10 µM, first compound 0.3 µM
[21] = second compound 0.1 µM, first compound 0.0316 µM
[22] = second compound 0.1 µM, first compound 0.1 µM
[23] = second compound 0.1 µM, first compound 0.316 µM
[24] = second compound 0.1 µM, first compound 1 µM
[25] = second compound 0.1 µM, first compound 3.16 µM
[26] = second compound 0.1 µM, first compound 10 µM
[27] = second compound 0.316 µM, first compound 0.0316 µM
[28] = second compound 0.316 µM, first compound 0.1 µM
[29] = second compound 0.316 µM, first compound 0.316 µM
[30] = second compound 0.316 µM, first compound 1 µM
[31] = second compound 0.316 µM, first compound 3.16 µM
[32] = second compound 0.316 µM, first compound 10 µM
[33] = second compound 1 µM, first compound 0.0316 µM
[34] = second compound 1 µM, first compound 0.1 µM
[35] = second compound 1 µM, first compound 0.316 µM
[36] = second compound 1 µM, first compound 1 µM
[37] = second compound 1 µM, first compound 3.16 µM
[38] = second compound 1 µM, first compound 10 µM
[39] = second compound 3.16 µM, first compound 0.0316 µM
[40] = second compound 3.16 µM, first compound 0.1 µM
[41] = second compound 3.16 µM, first compound 0.316 µM
[42] = second compound 3.16 µM, first compound 1 µM
[43] = second compound 3.16 µM, first compound 3.16 µM
[44] = second compound 3.16 µM, first compound 10 µM
[45] = second compound 10 µM, first compound 0.0316 µM
[46] = second compound 10 µM, first compound 0.1 µM
[47] = second compound 10 µM, first compound 0.316 µM
[48] = second compound 10 µM, first compound 1 µM
[49] = second compound 10 µM, first compound 3.16 µM
[50] = second compound 10 µM, first compound 10 µM
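Note: spheroids exposed to compounds for seven days.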

Nc1ncn(C2CC(O)C(CO)S2)c(=O)n1 (stereo not given) + Cc1ccccc1N=Nc1ccc(NC(=O)c2ccnn2C)c(C)c1
IC50 (second compound 0.1 µM): 206 nM
IC50 (second compound 0.316 µM): 182 nM
IC50 (second compound 1 µM): 189 nM
IC50 (second compound 3.16 µM): 262 nM
IC50 (second compound 10 µM): 88.2 nM
viability, T/C (second compound 0.1 µM, first compound 0.000949 µM): 92.7%
viability, T/C (second compound 0.1 µM, first compound 0.003 µM): 114%
viability, T/C [1]: 106%
viability, T/C [2]: 97.3%
viability, T/C [3]: 70.5%
viability, T/C [4]: 40.2%
viability, T/C (second compound 0.316 µM, first compound 0.000949 µM): 121%
viability, T/C (second compound 0.316 µM, first compound 0.003 µM): 108%
viability, T/C [5]: 134%
viability, T/C [6]: 117%
viability, T/C [7]: 63%
viability, T/C [8]: 40%
viability, T/C (second compound 1 µM, first compound 0.000949 µM): 106%
viability, T/C (second compound 1 µM, first compound 0.003 µM): 131%
viability, T/C [9]: 135%
viability, T/C [10]: 116%
viability, T/C [11]: 62.3%
viability, T/C [12]: 41.8%
viability, T/C (second compound 3.16 µM, first compound 0.000949 µM): 96.9%
viability, T/C (second compound 3.16 µM, first compound 0.003 µM): 104%
viability, T/C [13]: 106%
viability, T/C [14]: 101%
viability, T/C [15]: 69%
viability, T/C [16]: 47.4%
viability, T/C (second compound 10 µM, first compound 0.000949 µM): 52.6%
viability, T/C (second compound 10 µM, first compound 0.003 µM): 50.1%
viability, T/C [17]: 57.8%
viability, T/C [18]: 61.1%
viability, T/C [19]: 46.2%
viability, T/C [20]: 33.3%

O=C(C=Cc1cccc(S(=O)(=O)Nc2ccccc2)c1)NO + CC(CO)NC(=O)c1cc(-c2ccc(Cl)cc2)nn(-c2cnn(C)c2)c1=O
IC50 (second compound 0.1 µM): 1490 nM
IC50 (second compound 0.316 µM): 1520 nM
IC50 (second compound 1 µM): 1510 nM
IC50 (second compound 3.16 µM): 1320 nM
IC50 (second compound 10 µM): 909 nM
viability, T/C [21]: 89.9%
viability, T/C [22]: 91.5%
viability, T/C [23]: 79.6%
viability, T/C [24]: 50.1%
viability, T/C [25]: 40.4%
viability, T/C [26]: 10.1%
viability, T/C [27]: 89.8%
viability, T/C [28]: 84.8%
viability, T/C [29]: 79.4%
viability, T/C [30]: 51%
viability, T/C [31]: 39.9%
viability, T/C [32]: 9.03%
viability, T/C [33]: 96%
viability, T/C [34]: 101%
viability, T/C [35]: 80.8%
viability, T/C [36]: 50.6%
viability, T/C [37]: 40.9%
viability, T/C [38]: 9.28%
viability, T/C [39]: 81.3%
viability, T/C [40]: 86.5%
viability, T/C [41]: 74.1%
viability, T/C [42]: 48%
viability, T/C [43]: 38.1%
viability, T/C [44]: 8.4%
viability, T/C [45]: 86.5%
viability, T/C [46]: 79.1%
viability, T/C [47]: 68.1%
viability, T/C [48]: 43.5%
viability, T/C [49]: 31.9%
viability, T/C [50]: 6.06%

O=C(C=Cn1cnc(-c2cc(C(F)(F)F)cc(C(F)(F)F)c2)n1)NNc1cnccn1 + Cc1ccccc1N=Nc1ccc(NC(=O)c2ccnn2C)c(C)c1
IC50 (second compound 0.1 µM): 72.9 nM
IC50 (second compound 0.316 µM): 71 nM
IC50 (second compound 1 µM): 68.1 nM
IC50 (second compound 3.16 µM): 64.8 nM
IC50 (second compound 10 µM): 40.4 nM
viability, T/C [1]: 111%
viability, T/C [2]: 113%
viability, T/C [3]: 31.6%
viability, T/C [4]: 4.42%
viability, T/C (second compound 0.1 µM, first compound 0.949 µM): 2.04%
viability, T/C (second compound 0.1 µM, first compound 3 µM): 0.74%
viability, T/C [5]: 114%
viability, T/C [6]: 121%
viability, T/C [7]: 27.2%
viability, T/C [8]: 4.07%
viability, T/C (second compound 0.316 µM, first compound 0.949 µM): 1.17%
viability, T/C (second compound 0.316 µM, first compound 3 µM): 0.77%
viability, T/C [9]: 118%
viability, T/C [10]: 115%
viability, T/C [11]: 23.7%
viability, T/C [12]: 4.28%
viability, T/C (second compound 1 µM, first compound 0.949 µM): 1.23%
viability, T/C (second compound 1 µM, first compound 3 µM): 1.12%
viability, T/C [13]: 99.1%
viability, T/C [14]: 89.9%
viability, T/C [15]: 30.1%
viability, T/C [16]: 4.05%
viability, T/C (second compound 3.16 µM, first compound 0.949 µM): 1.22%
viability, T/C (second compound 3.16 µM, first compound 3 µM): 0.73%
viability, T/C [17]: 54.6%
viability, T/C [18]: 64.4%
viability, T/C [19]: 22.7%
viability, T/C [20]: 3.99%
viability, T/C (second compound 10 µM, first compound 0.949 µM): 1.13%
viability, T/C (second compound 10 µM, first compound 3 µM): 0.63%

NS(=O)(=O)OCC1CC(n2ccc3c(NC4CCc5ccccc54)ncnc32)CC1O (stereo not given) + Cc1ccccc1N=Nc1ccc(NC(=O)c2ccnn2C)c(C)c1
IC50 (second compound 0.1 µM): 94.9 nM
IC50 (second compound 0.316 µM): 90.1 nM
IC50 (second compound 1 µM): 88.2 nM
IC50 (second compound 3.16 µM): 80.5 nM
IC50 (second compound 10 µM): 57.6 nM
viability, T/C [21]: 93.2%
viability, T/C [22]: 47.9%
viability, T/C [23]: 16.2%
viability, T/C [24]: 6.95%
viability, T/C [25]: 4.75%
viability, T/C [26]: 5.39%
viability, T/C [27]: 94.9%
viability, T/C [28]: 45.5%
viability, T/C [29]: 14.1%
viability, T/C [30]: 6.56%
viability, T/C [31]: 4.96%
viability, T/C [32]: 5.27%
viability, T/C [33]: 96.5%
viability, T/C [34]: 44.2%
viability, T/C [35]: 16.7%
viability, T/C [36]: 7.31%
viability, T/C [37]: 5.64%
viability, T/C [38]: 6.16%
viability, T/C [39]: 84.5%
viability, T/C [40]: 42%
viability, T/C [41]: 14.1%
viability, T/C [42]: 6.49%
viability, T/C [43]: 4.75%
viability, T/C [44]: 5.47%
viability, T/C [45]: 67%
viability, T/C [46]: 34.3%
viability, T/C [47]: 13.7%
viability, T/C [48]: 4.96%
viability, T/C [49]: 3.85%
viability, T/C [50]: 4.91%

Cn1ncnc1C1c2n[nH]c(=O)c3cc(F)cc(c23)NC1c1ccc(F)cc1 (stereo not given) + CC(CO)NC(=O)c1cc(-c2ccc(Cl)cc2)nn(-c2cnn(C)c2)c1=O
IC50 (second compound 0.1 µM): > 100 nM
IC50 (second compound 0.316 µM): > 100 nM
IC50 (second compound 1 µM): > 100 nM
IC50 (second compound 3.16 µM): > 100 nM
IC50 (second compound 10 µM): > 100 nM
viability, T/C (second compound 0.1 µM, first compound 0.000316 µM): 107%
viability, T/C (second compound 0.1 µM, first compound 0.001 µM): 108%
viability, T/C (second compound 0.1 µM, first compound 0.00316 µM): 103%
viability, T/C (second compound 0.1 µM, first compound 0.01 µM): 96.6%
viability, T/C [21]: 87.1%
viability, T/C [22]: 69.1%
viability, T/C (second compound 0.316 µM, first compound 0.000316 µM): 102%
viability, T/C (second compound 0.316 µM, first compound 0.001 µM): 96.9%
viability, T/C (second compound 0.316 µM, first compound 0.00316 µM): 98.5%
viability, T/C (second compound 0.316 µM, first compound 0.01 µM): 107%
viability, T/C [27]: 73%
viability, T/C [28]: 63.9%
viability, T/C (second compound 1 µM, first compound 0.000316 µM): 104%
viability, T/C (second compound 1 µM, first compound 0.001 µM): 96.4%
viability, T/C (second compound 1 µM, first compound 0.00316 µM): 101%
viability, T/C (second compound 1 µM, first compound 0.01 µM): 89.3%
viability, T/C [33]: 79.1%
viability, T/C [34]: 64.7%
viability, T/C (second compound 3.16 µM, first compound 0.000316 µM): 90.1%
viability, T/C (second compound 3.16 µM, first compound 0.001 µM): 101%
viability, T/C (second compound 3.16 µM, first compound 0.00316 µM): 107%
viability, T/C (second compound 3.16 µM, first compound 0.01 µM): 82.9%
viability, T/C [39]: 84.9%
viability, T/C [40]: 64.6%
viability, T/C (second compound 10 µM, first compound 0.000316 µM): 96.7%
viability, T/C (second compound 10 µM, first compound 0.001 µM): 97.9%
viability, T/C (second compound 10 µM, first compound 0.00316 µM): 88.9%
viability, T/C (second compound 10 µM, first compound 0.01 µM): 79.2%
viability, T/C [45]: 67.1%
viability, T/C [46]: 51.1%
